Source: article PMC1082716, “Blockade of chemokine-induced signalling inhibits CCR5-dependent HIV infection in vitro without blocking gp120/CCR5 interaction” (Retrovirology, 2005)
Entries after “also recorded” stand apart in the source; their conditions may differ.

Assays:
[1] = tested on: SDF-1α induced chemotaxis; experiment: SDF-1α induced chemotaxis (ChemoTx transwell); format: cell-based; conditions: 100 ng/ml SDF1α; various concentrations of inhibitor in both compartments; 5 × 10^4 cells per well; 2 h, 37°C; MTT; triplicate
Procedure: Figure 2 Effect of Peptide 3 on gp120:V3 loop peptide binding to cells. (a) The binding of 100 μM N-terminal biotinylated gp120:V3(IIIb) to THP-1 cells was measured in the presence of various concentrations of peptide 3. […] (b) Chemotaxis in response to 100 ng/ml SDF1α was measured in the presence of various concentrations of peptide 3. […] (e) As for (a) except that the effect of Peptide 3 on the binding of gp120:V3(BaL) to THP-1 cells was determined. (f) As for (b) except that the effect of Peptide 3 on chemotaxis induced by 25 ng/ml MIP1α was determined. All binding reactions were performed with 10^6 cells in 100 μl of binding medium at 4°C. Chemotaxis assays were performed with 5 × 10^4 cells per well. Values are mean ± SEM of triplicate determinations.
Chemotaxis experiments were performed essentially as previously described, using the ChemoTx disposable 96-well transwell migration plates, with PVP-free membrane (6 μm pore size). Chemoattractant (lower compartment) and cells upper compartment) were suspended in Gey's Balanced salt solution + 1 mg/ml BSA. […] Migration was allowed to proceed for 2 hours at 37°C. […] Each condition was determined in triplicate, and the number of cells migrating in the absence of chemoattractant was subtracted to determine the chemokine-dependent chemotaxis which was reported.

HIV (IIIb) = HIV (IIIb) infection of Jurkat T-cells, p24gag immunofluorescence; format: cell-based; conditions: Peptide 3 100 μM, approximately 48 h after infection
Procedure: HIV infection of Jurkat T-cells was also monitored by high sensitivity quantitative immunofluoresence detection of viral p24^gag expression. Jurkat cells were infected with HIV in the presence or absence of Peptide 3 (100 μM) or SDF1α (100 ng/ml) as described above. Approximately 48 h after infection, the cells were attached to glass slides using a cytospin and then fixed by immersion in ice-cold 70% ethanol for 90 seconds. Expression of p24^gag was determined using quantitative immunofluoresence as previously described, except that the primary antibody was post-fixed to the section using paraformaldehyde to increase the sensitivity of the technique (see Methods). Viral infectivity was expressed as the number of cells stained for p24^gag expressed as a proportion of the total number of cells (detected using Hoechst 33342 nuclear dye). […]
Jurkat cells following HIV infection were attached to 8-well chamber slides (Becton-Dickinson) by spinning the slides using a plate rotor in a Labofuge centrifuge (Heraeus) at 3,000 × g for 5 minutes. […] A threshold was then applied to each image which was the lowest threhold that detected <1% of the pixels of an image of uninfected cells stained under identical conditions. The number of objects exceeding this threshold in each field of view were counted. […]

HIV strain MN = experiment: HIV (MN) infection of THP-1 cells, p24gag immunofluorescence; format: cell-based, HIV-1; conditions: Peptide 3 100 μM
Procedure: However, it was possible to assess HIV infectivity of THP-1 cells using high sensitivity immunofluorescent detection of p24^gag. THP-1 cells were differentiated with hydrocortisone and PMA, then treated with TNFα, resulting in adherent monolayers on glass chamber slides. The THP-1 cells were then treated with either Peptide 3 (100 μM), MIP1α (100 ng/ml) or SDF1α (100 ng/ml) as for the Jurkat cells. THP-1 cells were infected with HIV strain MN at a concentration previously validated to produce easily detectable infection and grown for 72 h prior to fixation and staining for p24^gag. In contrast to the findings with HIV strain IIIb infection of Jurkat T cells, Peptide 3 inhibited infection of THP-1 cells by more than 80% (Fig 3c), very similar to the effect of MIP1α.
THP-1 cells were differentiated prior to infection with hydrocortisone and PMA in 8-well chamber slides. Sixteen hours prior to infection, TNFα was added (100 ng/ml). Twelve hours later, the medium was aspirated and replaced with fresh medium containing the test peptides or chemokines as appropriate. After a further four hours, virus from the frozen stocks was adeed to the cells, which were the processed for immunofluoresence between 28 h and 72 h after infection.
Jurkat cells following HIV infection were attached to 8-well chamber slides (Becton-Dickinson) by spinning the slides using a plate rotor in a Labofuge centrifuge (Heraeus) at 3,000 × g for 5 minutes. Attached Jurkat cells or THP-1 cells were then fixed by dipping the slides into ice-cold 70% ethanol for 90 seconds. Non-specific binding was blocked by incubation with 3% fatty acid-free BSA in TBS for 1 hour at room temprature. Cells were incubated with the mouse monoclonal anti-HIV-1 p24^gag antibody EH12E1 (ref 38;AIDS Reagent Program, NIBSC) at 10 μg/ml in 3% BSA in TBS at room temperature overnight. Unbound antibody was removed with 3 × 3 min washes in PBS, and bound antibody was then fixed to the slide by incubation with 3.8% phosphate buffered formalin pH7.2 for 10 mins at room temperature, followed by 3 further 3 min washes in PBS. Bound antibody was visualised using donkey anti-mouse IgG FITC conjugate (715-095-150; Jackson Immunoresearch) at 30 μg/ml in 3% BSA/TBS + 1 ng/ml Hoescht 33342 for 6 hours at room temperature. Twelve fields of view (100× magnification) were captured from each well of the chamber slide using an Olympus Provis AX electronic microscope connected to a Power Macintosh 8500, running OpenLab image analysis software (Improvision), under both FITC illumination conditions (NIBA filter block; λex = 470–490 nm, dichroic mirror = 505 nm, λem = 515–550 nm) and UV illumination conditions (Chroma 31000; λex = 340–380 nm, dichroic mirror = 400 nm, λem = 435–485 nm). Images were acquired with a Hamamatsu C4742-05 monochrome digital camera with 10-bit depth in a 1280-1024 pixel field connected to a DIG Snapper frame grabber. The exposure time, amplifier gain and offset values were controlled by the OpenLab software and were held constant throughout the experiment. A background (an image captured without a slide under the objective) was digitally subtracted from every image. A threshold was then applied to each image which was the lowest threhold that detected <1% of the pixels of an image of uninfected cells stained under identical conditions. The number of objects exceeding this threshold in each field of view were counted. […]

Sequence: EICADPKQKWVQ [Peptide 3]
- Effect on SDF-1α induced chemotaxis [1]: powerfully inhibited; also recorded: efficiently blocks
- Effect on viral infectivity (p24gag, in words) (HIV (IIIb)): no effect
- Effect on HIV infection of THP-1 cells (in words) (HIV strain MN; HIV strain MN, MIP1α 100 ng/ml, SDF1α 100 ng/ml, 72 h, p24gag immunofluorescence): powerfully inhibited; also recorded: blocked
- Inhibition of infection of THP-1 cells (p24gag) (HIV strain MN; HIV strain MN, differentiated THP-1 (hydrocortisone, PMA, TNFα), grown for 72 h prior to fixation, 12 fields of view): more than 80%
- Inhibition of CCR5 mediated HIV infection of THP-1 cells (HIV strain MN; assayed by immunofluoresence staining, HIV MN, 72 h, p24gag): 83 ± 7%
